Results reported in ChEMBL document CHEMBL4806962, “Methods and Compositions for Treating Cancer” (2020).
The source made the active and inactive calls. The calls are words filed in the database; no cut-off is given here.

Experiments:
[1] = Effects of compound on anti-CD3/CD28-stimulated human PBMCs assessed as CD4-positive cells population at 10 uM after 2 days by flow cytometric analysis; format: functional, PBMC; settings: time 2 day
Splenocyte [2] = test: Effects of compound on IL-2 production in anti-CD3/CD28-stimulated GPR174 knockdown mouse splenocytes assessed as increase in IL-2 levels at 10 uM after 48 hrs; format: functional, cell-based
[3] = Effects of compound on anti-CD3/CD28-stimulated human PBMCs assessed as non-T cells population at 10 uM after 4 hrs by flow cytometric analysis; format: functional, PBMC
[4] = Induction of TNF production in anti-CD3/CD28-stimulated human PBMCs assessed as fold increase in TNF level at 1 uM after 24 hrs in presence of 0.75 ug/ml ADA by ELISA; format: functional, PBMC
[5] = Ratio of FC for induction of INF-gamma production in anti-CD3/CD28-stimulated human PBMCs at 1 uM after 24 hrs in presence of ZM-241385 and MRS-1754 to FC for induction of INF-gamma production in anti-CD3/CD28-stimulated human PBMCs at 1 uM after 24 hrs in presence of ZM-241385 and absence of MRS-1754; format: functional, PBMC
PBMC [6] = test: Effect of compound on human PBMCs assessed as reduction in PD-L1 expression in CD4-positive T cells after 1 day by flow cytometric analysis; format: functional, cell-based; settings: dose 1.25-5 µM
PBMC [7] = test: Effects of compound on IL-2 production in anti-CD3/CD28-stimulated human PBMCs assessed as increase in IL-2 level after 2 days by ELISA; format: functional, tissue-based; settings: dose 1-10 µM, time 2.0 day
PBMC [8] = test: Effects of compound on IL-6 production in anti-CD3/CD28-stimulated human PBMCs assessed as fold increase in IL-6 level at 30 uM after 2 days by ELISA; format: functional, tissue-based; settings: time 2.0 day
PBMC [9] = test: Effects of compound on INF-gamma production in anti-CD3/CD28-stimulated human PBMCs assessed as fold increase in INF-gamma level at 30 uM after 2 days by ELISA; format: functional; settings: time 2.0 day
PBMC [10] = test: Effect of compound on human PBMCs assessed as reduction in AREG expression in CD4-positive T cells after 1 day by flow cytometric analysis; format: functional, cell-based; settings: dose 1.25-5 µM
Splenocyte [11] = test: Effects of compound on IL-2 production in anti-CD3/CD28-stimulated wild type mouse splenocytes assessed as increase in IL-2 levels at 10 uM after 48 hrs; format: functional, cell-based
PBMC [12] = test: Effect of compound on human PBMCs assessed as reduction in CTLA4 expression in non-Treg cells after 1 day by flow cytometric analysis; format: functional, cell-based; settings: dose 0.19-6 µM
PBMC [13] = test: Effects of compound on INF-gamma production in anti-CD3/CD28-stimulated human PBMCs assessed as increase in INF-gamma level after 2 days by ELISA; format: functional, tissue-based; settings: dose 1-10 µM, time 2.0 day
[14] = Effects of compound on anti-CD3/CD28-stimulated human PBMCs assessed as non-T cells population at 10 uM after 2 days by flow cytometric analysis; format: functional, PBMC; settings: time 2 day
Splenocyte [15] = test: Effects of compound on IL-2 production in anti-CD3/CD28-stimulated GPR174 knock out mouse spleenocytes assessed as fold increase in IL-2 level at 0.3 uM after 2 days in presence of NECA; format: functional, cell-based; settings: time 2.0 day
[16] = target: T1, Probable G-protein coupled receptor 174 (Homo sapiens, UniProt Q9BXC1); test: Inverse agonist activity at GPR174 in anti-CD3/CD28-stimulated human PBMCs assessed as increase in FoxP3-positive Helios-negative T cells at 100 uM after 3 days by flow cytometric analysis; format: functional, tissue-based; settings: PBMC, filed as inverse agonist, time 3.0 day
[17] = target: T1, Probable G-protein coupled receptor 174; test: Antagonist activity at GPR174 (unknown origin) expressed in HEK293 cells assessed as inhibition of PS-induced GPR174 signaling at 1 to 2 uM incubated for 15 mins by GloSensor assay; format: functional, cell-based; design: scale not given: the % may be the effect or the level left; settings: filed as antagonist, dose 1-2 µM
CD4+ve Th = test: Reduction in AREG expression in human CD4-positive T-cells at 10 uM in presence of A2aR inhibitor ZM-241385; format: functional
[18] = target: T1, Probable G-protein coupled receptor 174; test: Antagonist activity at GPR174 (unknown origin) expressed in HEK293 cells assessed as inhibition of PS-induced GPR174 signaling incubated for 15 mins by GloSensor assay; format: functional, cell-based; settings: filed as antagonist
[19] = target: T1, Probable G-protein coupled receptor 174; test: Inverse agonist activity at human GPR174 assessed as fold decrease in Gs signalling activity by CRA; format: functional; settings: filed as inverse agonist
[20] = Induction of IL-2 production in anti-CD3/CD28-stimulated human PBMCs assessed as fold increase in IL-2 level at 1 uM after 24 hrs in presence of 0.1 uM A2aR inhibitor PBF-509 by ELISA; format: functional, PBMC
[21] = Ratio of FC for induction of TNF production in anti-CD3/CD28-stimulated human PBMCs at 1 uM after 24 hrs in presence of PBF-509 and MRS-1754 to FC for induction of TNF production in anti-CD3/CD28-stimulated human PBMCs at 1 uM after 24 hrs in presence of PBF-509 and absence of MRS-1754; format: functional, PBMC
[22] = Induction of TNF production in anti-CD3/CD28-stimulated human PBMCs assessed as fold increase in TNF level at 1 to 2 uM after 24 hrs in presence of A2aR inhibitor ZM-241385 by ELISA; format: functional, PBMC; settings: dose 1-2 µM
PBMC [23] = test: Effects of compound on IL-10 production in anti-CD3/CD28-stimulated human PBMCs assessed as fold increase in IL-10 level at 30 uM after 2 days by ELISA; format: functional, tissue-based; settings: time 2.0 day
PBMC [24] = test: Effects of compound on IL-17A production in anti-CD3/CD28-stimulated human PBMCs assessed as fold decrease in IL-17A level at 30 uM after 2 days by ELISA; format: functional, tissue-based; settings: time 2.0 day
[25] = target: T1, Probable G-protein coupled receptor 174; test: Inverse agonist activity at GPR174 in anti-CD3/CD28-stimulated human PBMCs assessed as reduction in FoxP3-positive Helios-positive nTreg cells at 100 uM after 7 days by flow cytometric analysis; format: functional, tissue-based; settings: PBMC, filed as inverse agonist, time 7.0 day
[26] = target: T1, Probable G-protein coupled receptor 174; test: Inverse agonist activity at GPR174 in anti-CD3/CD28-stimulated human PBMCs assessed as reduction in FoxP3-positive Helios-positive nTreg cells at 30 uM after 7 days by flow cytometric analysis; format: functional, tissue-based; settings: PBMC, filed as inverse agonist, time 7.0 day
PBMC [27] = test: Effects of compound on IL-2 production in anti-CD3/CD28-stimulated human PBMCs assessed as increase in IL-2 level at 30 uM after 2 days by ELISA; format: functional, tissue-based; settings: time 2.0 day
PBMC [28] = test: Effects of compound on IL-2 production in anti-CD3/CD28-stimulated human PBMCs assessed as increase in IL-2 level after 3 days by ELISA; format: functional, tissue-based; settings: dose 3-60 µM, time 3.0 day
Splenocyte [29] = test: Effects of compound on IL-2 production in anti-CD3/CD28-stimulated wild-type mouse spleenocytes assessed as fold increase in IL-2 level at 0.3 to 1 uM after 2 days; format: functional; settings: dose 0.3-1 µM; time 2 day
PBMC [30] = test: Effect of compound on human PBMCs assessed as reduction in CTLA4 expression in memory non-Treg cells after 1 day by flow cytometric analysis; format: functional, cell-based; settings: dose 0.19-6 µM

T1 sequence (Q9BXC1 whole entry): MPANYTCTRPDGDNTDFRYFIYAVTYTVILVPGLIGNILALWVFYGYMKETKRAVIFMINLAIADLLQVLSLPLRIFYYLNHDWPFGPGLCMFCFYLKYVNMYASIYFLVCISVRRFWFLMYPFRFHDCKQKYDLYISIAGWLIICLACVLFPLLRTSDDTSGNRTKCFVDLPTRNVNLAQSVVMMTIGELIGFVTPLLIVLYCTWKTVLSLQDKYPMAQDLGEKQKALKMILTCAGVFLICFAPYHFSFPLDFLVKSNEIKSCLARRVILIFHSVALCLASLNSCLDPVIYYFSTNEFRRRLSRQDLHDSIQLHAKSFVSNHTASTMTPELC

CC1CCN(c2cc(N3CCN(S(=O)(=O)c4ccccc4)CC3)c([N+](=O)[O-])cc2F)CC1
Activity [1]: 31.8%
Activity (Splenocyte [2]): inactive
Activity [3]: 33.9%
fold change (FC) [4]: 1.9
Ratio [5]: 1
Activity (PBMC [6]): Dose-Dependent Effect
Activity (PBMC [7]): Dose-Dependent Effect
Activity (PBMC [8]): Active
Activity (PBMC [9]): Active
Activity (PBMC [10]): Dose-Dependent Effect
Activity (Splenocyte [11]): Active
Activity (PBMC [12]): Dose-Dependent Effect
Activity (PBMC [13]): Dose-Dependent Effect
Activity [14]: 33.1%
Activity (Splenocyte [15]): inactive
Activity [16]: Active
Activity [17]: 100%
Activity (CD4+ve Th): Active
Activity [18]: Dose-Dependent Effect
fold change (FC) [19]: 0.2
fold change (FC) [20]: 1.9
Ratio [21]: 1
fold change (FC) [22]: 8
Activity (PBMC [23]): Active
Activity (PBMC [24]): Active
Activity [25]: Active
Activity [26]: Active
Activity (PBMC [27]): Active
Activity (PBMC [28]): Dose-Dependent Effect
fold change (FC) (Splenocyte [29]): 10
Activity (PBMC [30]): Dose-Dependent Effect
